Test results from patent EP4417607A1, “HETEROCYCLIC COMPOUND AS SOS1 INHIBITOR AND USES THEREOF” (Nanjing Zaiming Pharmaceutical Co., Ltd., priority 2021, dated 2023).

How the values were obtained:
H358 cells = experiment: H358 cell proliferation inhibition (CellTiter-Glo luminescent cell viability assay); format: cell-based; settings: Homo sapiens, NCI-H358, 168 h, 7 days
How it was run: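 H358 cells seeded at 3000 cells/well in RPMI1640/10% FBS, treated with compound for 7 days at 37 °C/5% CO2. Viability read by CellTiter-Glo 3D luminescence, normalised to cell-free (100%) and compound-free (0%) controls; IC50 fitted from 8 concentrations by four-parameter curve.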

[1] = tested on: p-ERK pathway in H358 cells; experiment: p-ERK pathway inhibition in H358 cells (Advanced phospho-ERK (Thr202/Tyr204) cellular kit, HTRF); format: cell-based; settings: Homo sapiens, NCI-H358, 1 h compound incubation
How it was run: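 IC50 from an 8-point four-parameter fit of % inhibition of ERK Thr202/Tyr204 phosphorylation, measured by HTRF 665/620 ratio in lysates. H358 cells were seeded at 50000/well, starved overnight without serum, and exposed to compound 1 h at 37 °C; controls were cell-free (100%) and untreated (0%).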

[2] = Pharmacokinetics in mice after single intragastric or intravenous administration; format: in vivo; settings: female, BALB/c nude, mouse, plasma
Experimental: Healthy adult female BALB/c nude mice were evenly divided into groups of 3 mice per group. 3 mice were administered intragastrically, and 3 mice were administered intravenously. The mice were purchased from Beijing Vital River Laboratory Animal Technology Co., Ltd., animal production license number: SCXK (Zhejiang) 2019-0001.
A certain amount of the compound of the present invention was weighed and dissolved in 5% DMSO + 20% PG + 5% anhydrous ethanol + 10% solutol + 60% water to prepare 5 mg/mL for intragastric administration. A certain amount of the compound of the present invention was weighed and dissolved in 1% DMSO + 4% PG + 1% anhydrous ethanol + 2% solutol + 92% water to prepare 0.5 mg/mL for intravenous injection.
Intragastric administration group: BALB/c nude mice were fasted overnight and then intragastrically administered the compound at a dose of 50 mg/kg and a volume of 10 mL/kg.
Intravenous administration group: BALB/c nude mice were fasted overnight and then intravenously administered the compound at a dose of 3 mg/kg and a volume of 6 mL/kg.
After intragastric administration or intravenous administration, 40 µL of blood was collected from orbits of the mice at 5 min, 15 min, 30 min, 1 h, 2 h, 4 h, 6 h, 8 h, and 24 h after administration, anticoagulated with 5 µL of EDTA-K2, centrifuged at 12000 rpm at 4 °C for 5 min to separate the plasma, and stored at -20 °C.
Determination of plasma concentrations in mice after intragastric administration or intravenous administration of different concentrations of the test compounds: the sample was melted at room temperature and vortexed for 1 min; 10 µL of the sample was quantitatively transferred to a 2-mL 96-well plate; 50 µL of an internal standard solution (a solution of tolbutamide in acetonitrile) and 50 µL of a precipitant (acetonitrile:methanol 7:3) were added, and the plate was shaken (1000 rpm * 3 min); the mixture was centrifuged (4000 rpm * 15 min); 80 µL of the supernatant was transferred to a 2-mL 96-well plate; 80 µL of a diluent (water) was added; the mixture was shaken evenly (1000 rpm * 3 min), and 5 µL of the sample was analyzed. LC/MS/MS conditions: The mobile phase A was 0.1% aqueous formic acid solution. The mobile phase B was 0.1% formic acid in acetonitrile. The column was Waters T3 1.8 µm (2.1 mm * 30 mm). The column temperature was 40 °C.

[3] = po, single intragastric administration, 50 mg/kg
[4] = single intravenous administration, 3 mg/kg

Row | IC50 (H358 cells) [µM] | IC50 [1] [µM] | AUC(0-t) [2, 3] [ng·h/mL] | Cmax [2, 3] [ng/mL] | Tmax [2, 3] [min] | half-life [2, 3] [min] | AUC(0-t) [2, 4] [ng·h/mL] | C0 [2, 4] [ng/mL] | half-life [2, 4] [min] | Vd ([2]; single intravenous administration, 3 mg/kg, read-out: Vss) [L/kg] | Structure (SMILES)
1 | 0.0787 | 0.071 |  |  |  |  |  |  |  |  | COc1c(=O)n(C2(CF)CC2)cc2c(N[C@H](C)c3cccc([N+](=O)[O-])c3C)nc(C)nc12 [Example 29, (R)-6-(1-(fluoromethyl)cyclopropyl)-8-methoxy-2-methyl-4-((1-(2-methyl-3-nitrophenyl)ethyl)amino)pyrido[4,3-d]pyrimidine-7(6H)-one]
2 | 0.0196 | 0.0207 | 17800 | 9430 | 24 | 60 | 619 | 2960 | 30 | 3.8 | COc1c(=O)n(C2(CF)CC2)cc2c(N[C@H](C)c3cccc(C(F)F)c3F)nc(C)nc12 [Example 1, (R)-4-((1-(3-(difluoromethyl)-2-fluorophenyl)ethyl)amino)-6-(1-(fluoromethyl)cyclopropyl)-8-methoxy-2-methylpyrido[4,3-d]pyrimidine-7(6H)-one]
3 | 0.0237 | 0.0355 |  |  |  |  |  |  |  |  | Cc1nc(N[C@H](C)c2cccc(C(F)F)c2F)c2cn(C3(CF)CC3)c(=O)c(N3CCN(CC4(C)COC4)CC3)c2n1 [Example 109, (R)-4-((1-(3-(difluoromethyl)-2-fluorophenyl)ethyl)amino)-6-(1-(fluoromethyl)cyclopropyl)-2-methyl-8-(4-((3-methyloxetan-3-yl)methyl)piperazin-1-yl)pyrido[4,3-d]pyrimidine-7(6H)-one]
4 | 0.0884 | 0.0565 |  |  |  |  |  |  |  |  | Cc1nc(N[C@H](C)c2cccc(C(F)F)c2F)c2cn(C3(CF)CC3)c(=O)c(N3CCN(CC(F)(F)F)CC3)c2n1 [Example 131, (R)-4-((1-(3-(difluoromethyl)-2-fluorophenyl)ethyl)amino)-6-(1-(fluoromethyl)cyclopropyl)-2-methyl-8-(4-(2,2,2-trifluoroethyl)piperazin-1-yl)pyrido[4,3-d]pyrimidine-7(6H)-one]
